One assay concerns C57/B16J mice. Put plainly: Serum iron assay in mice after peptide administration. It is filed as in vivo. To be noted: i.p., 4 hours.
The target in assay [1] is T1, ferroportin fused to green fluorescent protein (ECR293/Fpn-GFP cells) (Mus musculus, UniProt Q9JHI9).
T1 sequence (Q9JHI9 1-570): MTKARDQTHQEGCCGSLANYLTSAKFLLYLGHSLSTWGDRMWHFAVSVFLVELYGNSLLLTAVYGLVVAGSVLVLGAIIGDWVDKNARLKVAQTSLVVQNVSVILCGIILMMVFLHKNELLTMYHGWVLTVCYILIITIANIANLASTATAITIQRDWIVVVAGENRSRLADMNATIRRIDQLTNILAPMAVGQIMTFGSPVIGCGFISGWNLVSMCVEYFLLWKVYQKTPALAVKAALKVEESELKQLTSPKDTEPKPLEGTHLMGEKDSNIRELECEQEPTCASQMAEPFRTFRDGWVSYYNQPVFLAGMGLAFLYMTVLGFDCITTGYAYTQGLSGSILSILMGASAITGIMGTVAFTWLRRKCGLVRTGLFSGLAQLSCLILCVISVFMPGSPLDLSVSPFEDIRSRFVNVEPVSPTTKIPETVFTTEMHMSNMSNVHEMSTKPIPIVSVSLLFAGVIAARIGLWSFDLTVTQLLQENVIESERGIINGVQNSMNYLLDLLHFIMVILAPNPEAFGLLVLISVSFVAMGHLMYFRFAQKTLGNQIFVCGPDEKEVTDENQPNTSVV
Put plainly: Flow cytometry of ferroportin-GFP internalization and degradation in ECR293/Fpn-GFP cells. It counts as cell-based. To be noted: concentration eliciting 50% of maximal loss of fluorescence generated by reference Hep25; 24 hours; read-out: EC50 (the source's name). How it is done: In vitro activity may be measured by the dose-dependent loss of fluorescence of cells engineered to display ferroportin fused to green fluorescent protein as in Nemeth et al. (2006) Blood 107:328-33. […]
FLOW CYTOMETRY. The activity of peptides of the present invention was measured by flow cytometry as previously described. See Nemeth et al. (2006) Blood 107:328-333, which is herein incorporated by reference. ECR293/Fpn-GFP, a cell line stably transfected with a ponasterone-inducible ferroportin construct tagged at the C-terminus with green fluorescent protein was used. See Nemeth et al. (2004) Science 306:2090-2093, which is herein incorporated by reference. Briefly, the cells were plated on poly-D-lysine coated plates in the presence of 20 μM FAC, with or without 10 μM ponasterone. After 24 hours, ponasterone was washed off, and cells were treated with peptides for 24 hours. Cells were then trypsinized and resuspended at 1×10^6 cells/ml, and the intensity of green fluorescence was analyzed by flow cytometry. […] Cells not induced with ponasterone to express Fpn-GFP were used to establish a gate to exclude background fluorescence. Cells induced with ponasterone, but not treated with any peptides, were used as the positive control. Each peptide was tested over the range of concentrations (0, 0.01, 0.03, 0.1, 0.3, 1, 3 and 10 μM). Each peptide treatment was repeated independently 3 to 6 times.
Background: Flow cytometry measures light scatter and fluorescence of single cells or particles in a stream.

Square brackets hold non-standard residues; d marks the D form. Peptide text beside a SMILES is read from it. * marks the point of attachment. PEG12 = NCCOCCOCCOCCOCCOCCOCCOCCOCCOCCOCCOCCOCCC(=O)O; Palmitoyl = CCCCCCCCCCCCCCCC(=O)*; Dap = NC[C@H](N)C(=O)O

Protocol for C57/B16J mice: Serum iron assay. The decrease in serum iron after peptide administration is the principal measure of hepcidin activity. Thus, as provided herein, the hepcidin activity of selected peptides of the present invention were assayed in vivo by measuring serum iron in test subjects. […] Two weeks before the experiment, the mice were switched to a diet containing about 2-4 ppm iron (Harlan Teklad, Indianapolis, Ind.) in order to suppress endogenous hepcidin. Peptide stocks were diluted to desired concentrations in sterile phosphate buffered saline (PBS) or other diluents as described next. […] Mice were sacrificed 4 hours later, blood was collected by cardiac puncture, and serum was separated using MICROTAINER tubes (Becton Dickinson, Franklin Lakes, N.J.). Serum iron was determined by using a colorimetric assay (Diagnostic Chemicals, Oxford, Conn.), which was modified for the microplate format so that 10 μl serum was used per measurement. The results were expressed as the percentage of decrease in serum iron when compared with the average value of serum iron levels in PBS-treated mice.

`CC[C@@H](C)[C@@H](NC(=O)[C@H](N)Cc1ccccc1)C(=O)N[C@H](CS)C(=O)N[C@@H](C(=O)N1CCC[C@@H]1C(=O)N[C@H](Cc1ccccc1)C(=O)N[C@H](Cc1c[nH]cn1)C(=O)N[C@@H](C(=O)N[C@H](CC(=O)O)C(N)=O)[C@H](C)O)[C@H](C)CC` [Pr12]: in the assay on C57/B16J mice (50 μg per mouse in PBS, vs PBS), the serum iron result is recorded as “significant decrease in serum iron after 4 hours”. Besides, in assay [1], the DC50 worked out at 900 nM.

Consider `CC[C@@H](C)[C@@H](NC(=O)[C@H](N)Cc1ccccc1)C(=O)N[C@H](CS)C(=O)N[C@@H](C(=O)N1CCC[C@@H]1C(=O)N[C@H](Cc1ccccc1)C(=O)N[C@H](Cc1c[nH]cn1)C(N)=O)[C@H](C)CC` [riHep7ΔDT] (H-[dF][dI][dC][dI][dP][dF][dH]-NH2; N-terminus assumed), for which the serum iron entry in the assay on C57/B16J mice (20 nmoles in PBS) is “slightly but not significantly reduced serum iron concentrations”; with C57/B16J mice (200 nmoles in PBS), “serum iron concentrations significantly lower than those achieved after injection of PBS”. For the same compound, the DC50 in assay [1] came to 150 nM.

On to `CC[C@H](C)[C@H](NC(=O)[C@H](CS)NC(=O)[C@@H](NC(=O)[C@@H]1CCCN1C(=O)[C@H](Cc1ccccc1)NC(=O)[C@H](Cc1c[nH]cn1)NC(=O)[C@@H](NC(=O)[C@@H](N)CC(=O)O)[C@@H](C)O)[C@@H](C)CC)C(=O)N[C@@H](Cc1ccccc1)C(N)=O` [Hep9], for which the serum iron result with C57/B16J mice (50 μg per mouse in PBS, vs PBS) is reported as “did not result in a serum iron decrease”.

For `CCCCCCCCCCCCCCCC(=O)NC[C@H](NC(=O)CCCCCCCCCCCCCCC)C(=O)NCCOCCOCCOCCOCCOCCOCCOCCOCCOCCOCCOCCOCCC(=O)N[C@H](Cc1ccccc1)C(=O)N[C@@H](C(=O)N[C@H](CS)C(=O)N[C@@H](C(=O)N1CCC[C@@H]1C(=O)N[C@H](Cc1ccccc1)C(=O)N[C@H](Cc1c[nH]cn1)C(=O)N[C@@H](C(=O)N[C@H](CC(=O)O)C(N)=O)[C@H](C)O)[C@H](C)CC)[C@H](C)CC` [Pr28] (Palmitoyl-[Dap](Palmitoyl)[PEG12][dF][dI][dC][dI][dP][dF][dH][dT][dD]-NH2), the serum iron result with C57/B16J mice (20 nmoles in liposomal solution) is “lesser ability to decrease serum iron than Pr27”.

Source of the values: patent US20130203662A1, “Mini-Hepcidin Peptides and Methods of Using Thereof” (priority 2008, published 2013).
